Patent publication US6911330B1, “Recombinant secoisolariciciresinol dehydrogensase, and methods of use” (Washington State University Research Foundation, priority 1998, dated 2005)

Tests used:
[1] = biological target: T1, pinoresinol/lariciresinol reductase (Forsythia intermedia, UniProt P93143); conditions: incubation with (±)-pinoresinols in presence of NADPH; cited from earlier work
T1 construct: host or cells: E. coli, pSBETa vector
T1 sequence (P93143 1-312): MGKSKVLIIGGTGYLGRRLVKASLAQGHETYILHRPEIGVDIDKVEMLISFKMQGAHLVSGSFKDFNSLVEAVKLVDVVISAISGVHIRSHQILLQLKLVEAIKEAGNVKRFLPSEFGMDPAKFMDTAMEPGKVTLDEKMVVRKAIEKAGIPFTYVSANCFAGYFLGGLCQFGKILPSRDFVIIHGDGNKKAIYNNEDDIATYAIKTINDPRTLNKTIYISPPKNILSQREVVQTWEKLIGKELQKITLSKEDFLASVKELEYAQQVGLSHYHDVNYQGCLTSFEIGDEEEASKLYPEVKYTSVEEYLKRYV

[2] = biological target: HIV reverse transcriptase (Human immunodeficiency virus type 1 group M subtype B, UniProt P04585); conditions: cited from earlier work
[3] = biological target: T2, secoisolariciresinol dehydrogenase (Forsythia intermedia, UniProt Q94KL7, F122L/G175A/I11F); assay: Dehydrogenase activity of recombinant enzyme expressed in E. coli; format: biochemical; conditions: crude supernate of E. coli expressing DEHY133
T2 construct: The dehydrogenase coding region was also excised using the Nde I sites at the 5′ and 3′ ends and cloned into the SBET vector; made in house; host or cells: E. coli B834(DE3), SBET vector
Protocol: (§1) Secoisolarciresinol dehydrogenase activity was assayed by monitoring the formation of (−)-[9′-^3H2]matairesinol. Each assay consisted of NAD (50 mM in 0.1 M potassium phosphate buffer, pH 7, 5 μl), (±)-[9,9′-^3H2]secoisolariciresinols (28 nM, 130 MBq/mmol in ethanol, 5 μl) and buffer (50 mM Tris-HCl, pH 8.8, 470 μl ). The enzymatic reaction was initiated by addition of the enzyme preparation (20 μl). After 1 h incubation at 30° C. with shaking, the mixture was extracted with EtOAc (500 μl ×2) containing unlabelled (±)-matairesinols (200 μg) as radiochemical carriers. After centrifugation (13,800×g, 5 min) the EtOAc solubles were removed, evaporated to dryness in vacuo, reconstituted in MeOH:3% acetic acid in H2O (1:1, 200 μl), and an aliquot (20 μl) subjected to reversed-phase column chromatography. The elution conditions were as follows: linear gradient acetonitrile/3% acetic acid in H2O from 10:90 to 30:70 between 0 and 35 min; then to 5:95 in 5 min and finally isocratic at 5:95 for 5 min, at a flow rate of 1 ml min^−1, and detection at 280 nm. Fractions corresponding to matairesinol were individually collected, aliquots removed for liquid scintillation counting, and the remainder freeze-dried.
(§2) [9′-^3H2]Matairesinol (0.5 kBq), collected after reversed-phase column chromatography, was reduced with LiAlH4 to give [9′-^3H2]secoisolariciresinol (0.26 kBq).
(§3) The E. coli culture containing the dehydrogenase clone was grown at 37° C. in 25 ml of SOC Kn50 medium to an O.D. of 0.5. To this was added IPTG to give a final concentration of 0.5 mM and the culture was grown at 18° C. for an additional 20 h. The cells were pelleted at 600×g 4° C. 12 min, resuspended in 5 ml of 20 mM Tris-HCl pH 8.0, 5 mM DTT buffer and repelleted. The final bacterial pellet was resuspended in 200 μL of the above buffer and sonicated 4×15 sec using a Braun-Sonic 2000 sonicator set at maximal output of −0.64. The sample was then centrifuged 20,800 ×g 4° C. 15 min and the crude supernate was assayed for dehydrogenase activity. […] The clone SMDEHY631 (SEQ ID NO:9) was also expressed in E. coli in the foregoing manner.

cAMP-phosphodiesterase = conditions: cited from earlier work
HIV-1 = conditions: cited from earlier work
[4] = biological target: T3, secoisolariciresinol dehydrogenase (Forsythia intermedia, UniProt Q94KL7); assay: Dehydrogenase activity of recombinant enzyme expressed in E. coli; format: biochemical; conditions: protein produced in E. coli
T3 construct: The dehydrogenase coding region was also excised using the Nde I sites at the 5′ and 3′ ends and cloned into the SBET vector; made in house; host or cells: E. coli B834(DE3), SBET vector
Protocol: as §1, §2, §3

COc1cc(C2OCC3C(c4ccc(O)c(OC)c4)OCC23)ccc1O (single isomer, unassigned; (+)) [(+)-pinoresinol]
served as substrate of recombinant pinoresinol/lariciresinol reductase [1]: served as substrates

CC(Cc1ccc(O)c(O)c1)C(C)Cc1ccc(O)c(O)c1 (stereo not shown) [nordihydroguaiaretic acid]
effectiveness against HIV due to reverse transcriptase inhibitory activity [2]: effective against HIV

(+)-secoisolariciresinol [(+)-antipode of secoisolariciresinol]
conversion as substrate into (−)-lactol and (−)-matairesinol [3]: did not serve as a substrate

(−)-pinoresinol
served as substrate of recombinant pinoresinol/lariciresinol reductase [1]: not

COc1cc(C[C@H]2COC(=O)[C@@H]2Cc2ccc(O)c(OC)c2)ccc1O [matairesinol]
inhibition of cAMP-phosphodiesterase (cAMP-phosphodiesterase): inhibit

(−)-secoisolariciresinol
conversion as substrate into (−)-lactol and (−)-matairesinol [3]: catalyzed the conversion

(−)-trachelogenin
inhibition of in vitro replication of HIV-1 (HIV-1): inhibits
effectiveness against HIV due to reverse transcriptase inhibitory activity [2]: effective against HIV

COc1cc(C[C@H]2C(=O)OC[C@@H]2Cc2ccc(OC)c(OC)c2)ccc1O [(−)-arctigenin]
effectiveness against HIV due to reverse transcriptase inhibitory activity [2]: effective against HIV

COc1cc(C[C@H]2CO[C@H](c3ccc(O)c(OC)c3)[C@H]2CO)ccc1O [(+)-lariciresinol]
served as substrate of recombinant pinoresinol/lariciresinol reductase [1]: served as substrates

B1: SMDEHY631: protein (SEQ ID NO:10) encoded by cDNA clone SEQ ID NO:9 (protein)
chain: MATSQLRTAFARRLEGKVALITGGASGVGEVTAKLFSQHGAKVAIADVQDELGHSVVEAIGLSNSTYIHCDVTNEDGVKNAVDNTVSTYGKLDIMFNNAGISDPYKPRVIDNEKADFERVLSVNVTGVFLFMKHAARIMVPARSGCIISTASLSSTMGGGSSHAYCGSKHAVLGLTRNLAVELGQFGIRVNCLSPFGLPTPLAKKFTGIENDEDLANGIERAGNLKGTKLRIEDVANAALFLASDEAQYVSGQNLFIDGGFSVCNSAIKLFQYPDS
modifications: Forsythia x intermedia
catalysis of conversion of (−)-secoisolariciresinol into (−)-matairesinol by protein of the clone [4]: catalyzed the stereochemical conversion

B2: SMDEHY321: protein (SEQ ID NO:4) encoded by cDNA clone SEQ ID NO:3 (protein)
chain: MAATSQVLTAIARRLEGKVALITGGASGIGETTAKLFSQHGAKVAIADVQDELGHSVVEAIGTSNSTYIHCDVTNEDGVKNAVDNTVSTYGKLDIMFSNAGISDPNRPRIIDNEKADFERVFSVNVTGVFLCMKHAARVMIPARSGNIISTASLSSTMGGGSSHAYCGSKHAVLGLTRNLAVELGQFGIRVNCLSPFGLPTALGKKFSGIKNEEEFENVINFAGNLKGPKFNVEDVANAALYLASDEAKYVSGHNLFIDGGFSVCNSVIKVFQYPDS
modifications: Forsythia x intermedia
catalysis of conversion of (−)-secoisolariciresinol into (−)-matairesinol by protein of the clone [4]: catalyzed the stereochemical conversion

B3: SMDEHY133: protein (SEQ ID NO:2) encoded by engineered cDNA clone DEHY133 (SEQ ID NO:1) (protein)
chain: MQLRTAFARRLEGKVALITGGASGIGETTAKLFSQHGAKVAIADVQDELGHSVVEAIGTSNSTYIHCDVTNEDGVKNAVDNTVSTYGKLDIMFSNAGISDPNRPRIIDNEKADFERVLSVNVTGVFLCMKHAARVMIPARSGNIISTASLSSTMGGGSSHAYCGSKHAVLALTRNLAVELGQFGIRVNCLSPFGLPTALGKKFSGIKNEEEFENVINFAGNLKGPKFNVEDVANAALYLASDEAKYVSGHNLFIDGGFSVCNSVIKVFQYPDS
modifications: Forsythia x intermedia
catalysis of conversion of (−)-secoisolariciresinol into (−)-matairesinol by protein of the clone [4]: catalyzed the stereochemical conversion
